The NIST ThermoML archive (doi:10.1021/je8006474)
± gives the expanded uncertainty stated by the source.

Conditions: 101.33 kPa, Liquid, Pycnometric method

## Fc1ccccc1F [1,2-difluorobenzene]
296.2 K
  mass density: 1156 ± 36 kg/m3
331.1 K
  mass density: 1117 ± 36 kg/m3

## Fc1cc(F)cc(F)c1 [1,3,5-trifluorobenzene]
297.2 K
  mass density: 1268 ± 36 kg/m3
324.9 K
  mass density: 1225 ± 36 kg/m3

## Fc1ccc(F)c(F)c1 [1,2,4-trifluorobenzene]
296.6 K
  mass density: 1280 ± 36 kg/m3
330.7 K
  mass density: 1247 ± 36 kg/m3

## Fc1cccc(F)c1F [1,2,3-trifluorobenzene]
296 K
  mass density: 1292 ± 36 kg/m3
331.6 K
  mass density: 1240 ± 36 kg/m3

## Fc1cccc(F)c1 [1,3-difluorobenzene]
296.2 K
  mass density: 1139 ± 36 kg/m3
330.6 K
  mass density: 1094 ± 36 kg/m3

## Fc1cc(F)c(F)cc1F [1,2,4,5-tetrafluorobenzene]
296.7 K
  mass density: 1421 ± 36 kg/m3
327.4 K
  mass density: 1370 ± 36 kg/m3

## Fc1cc(F)c(F)c(F)c1 [1,2,3,5-tetrafluorobenzene]
296.3 K
  mass density: 1403 ± 37 kg/m3
325.9 K
  mass density: 1352 ± 37 kg/m3
